Results taken from patent US20220273659A1, “HETEROCYCLIC COMPOUNDS AS KINASE INHIBITORS” (NUVATION BIO INC., priority 2019, published 2022).
Where two headings read alike, the source gives them in different places.

Tests used:
CDK4 = biological target: T1, CDK4 (Homo sapiens, UniProt P11802); test: In vitro kinase inhibition IC50, luminescence (ADP Glo), retinoblastoma substrate; format: biochemical; settings: read-out: CDK4/D1 IC50
T1 construct: purchased Invitrogen PR8064A
Summary of the method: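 CDK4 enzyme (5 nM, Invitrogen) was combined with test compound and a mix of retinoblastoma substrate (1 μM) plus ATP (25 μM) in kinase buffer, 30 μL/well in 96-well half area white plates. After 2H at room temperature, ADP Glo reagent stopped the reaction for 45 min, then detection reagent was added and luminescence was read.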

CDK6 = biological target: T2, CDK6 (Homo sapiens, UniProt Q00534); test: as above; format: biochemical; settings: read-out: CDK6/D1 IC50
T2 construct: purchased Invitrogen PR8422B
T2 sequence (Q00534 whole entry): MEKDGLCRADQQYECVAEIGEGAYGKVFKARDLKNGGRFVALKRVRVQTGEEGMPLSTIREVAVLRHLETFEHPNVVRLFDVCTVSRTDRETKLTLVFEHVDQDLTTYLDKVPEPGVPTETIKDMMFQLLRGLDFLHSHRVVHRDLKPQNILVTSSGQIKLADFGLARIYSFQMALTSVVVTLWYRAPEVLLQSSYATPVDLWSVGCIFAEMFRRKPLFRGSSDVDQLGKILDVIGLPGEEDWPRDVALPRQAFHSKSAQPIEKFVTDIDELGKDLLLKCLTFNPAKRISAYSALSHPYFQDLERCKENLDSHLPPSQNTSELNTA
T2 sequence (P24385 whole entry partner): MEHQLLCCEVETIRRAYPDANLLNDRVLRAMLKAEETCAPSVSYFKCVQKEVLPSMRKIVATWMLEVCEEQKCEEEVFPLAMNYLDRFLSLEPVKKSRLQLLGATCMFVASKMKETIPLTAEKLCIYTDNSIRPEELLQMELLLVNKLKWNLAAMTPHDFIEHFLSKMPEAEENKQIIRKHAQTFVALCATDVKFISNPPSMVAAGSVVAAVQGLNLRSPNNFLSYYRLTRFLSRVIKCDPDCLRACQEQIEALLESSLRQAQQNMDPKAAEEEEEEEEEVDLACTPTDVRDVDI
Summary of the method: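 Recombinant CDK6 (5 nM) with retinoblastoma substrate (1 μM) and 25 μM ATP, compound at final 0.1–200 nM, incubated 2 h at room temperature. ADP formed detected by ADP-Glo luminescence. IC50 from four-parameter logistic fit of percent inhibition.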

CDK1 (cyclin B) = biological target: T3, CDK1 (cyclin B) (Homo sapiens, UniProt P06493); test: Z'-LYTE kinase assay; format: biochemical
T3 construct: purchased Invitrogen Life Technologies (assay service)
T3 sequence (P06493 whole entry): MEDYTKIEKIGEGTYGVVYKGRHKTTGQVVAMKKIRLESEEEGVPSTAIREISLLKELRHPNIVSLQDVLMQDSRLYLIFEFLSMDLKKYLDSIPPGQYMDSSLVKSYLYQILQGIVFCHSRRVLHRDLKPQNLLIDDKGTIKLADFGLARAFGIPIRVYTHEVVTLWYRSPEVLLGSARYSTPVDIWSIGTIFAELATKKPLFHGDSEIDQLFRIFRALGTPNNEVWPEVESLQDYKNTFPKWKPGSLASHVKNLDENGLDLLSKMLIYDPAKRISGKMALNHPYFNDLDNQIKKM
T3 sequence (P14635 whole entry partner): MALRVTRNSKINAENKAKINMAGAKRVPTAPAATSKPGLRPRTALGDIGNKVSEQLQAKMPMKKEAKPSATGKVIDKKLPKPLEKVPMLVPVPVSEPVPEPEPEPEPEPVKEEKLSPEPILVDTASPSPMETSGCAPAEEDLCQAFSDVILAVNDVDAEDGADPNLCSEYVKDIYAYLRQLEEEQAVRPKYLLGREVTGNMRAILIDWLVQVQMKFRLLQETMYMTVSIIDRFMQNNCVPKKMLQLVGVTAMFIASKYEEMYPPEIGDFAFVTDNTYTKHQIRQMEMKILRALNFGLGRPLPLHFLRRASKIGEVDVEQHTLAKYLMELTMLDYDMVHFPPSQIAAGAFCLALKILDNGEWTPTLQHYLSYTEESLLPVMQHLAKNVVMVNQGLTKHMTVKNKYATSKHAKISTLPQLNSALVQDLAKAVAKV
Experimental: The plates were shaken for 30 seconds, and incubated for 60 minutes at room temperature. […] The plates were read on fluorescence plate reader with Dual emission at 445 nm and 520 nm.
The following equations were used for Z′-LYTE™ Screening Assay Data Analysis.

[1] = tested on: Rb Ser780 phosphorylation in MCF-7 cells; test: Determination of pRb levels (Ser780 phosphorylation, ELISA); format: cell-based; settings: Homo sapiens; for inhibition at 0.01 µM: MCF7, 0.01 μM; for inhibition at 0.01 µM / inhibition at 0.1 µM / inhibition at 1 µM: 24H treatment, percentage of vehicle control; for inhibition at 0.1 µM: MCF7, 0.1 μM; for inhibition at 1 µM: MCF7, 1 μM
Experimental: Hypo-phosphorylation of the retinoblastoma protein (Rb) by cyclin D:Cdk4/6 complexes results in active Rb, which is a clinically relevant biomarker associated with CDK4 or CDK6 inhibition. As a confirmatory measure of functional activity of CDK4/6, the Ser780 phosphorylation state of Rb was assessed. MCF-7 cells were plated at 2.5×10^5 to 3.0×10^6 cells/well in 6-well cell-culture plates and incubated at 37° C. for 24H in MEM medium supplemented with 10% FBS. Cells were treated for 24H with a medium containing test compound at various concentrations (e.g., 0.01, 0.1, […]) or with DMSO (≤1%) in duplicate. After incubation period, the media was removed, and cells were rinsed once with ice-cold PBS and lysed with 0.2 mL of Cell Lysis Buffer containing 1 mM PMSF and Protease Inhibitor. Protein concentration was estimated following Bradford method. The lysis and the Rb measurements were performed following the manufacturer's ELISA kit protocols and buffers (Cell Signaling Technology, Cat. No.: 13016C). Rb inhibition of test compounds was calculated as percentage of vehicle control. In some cases, a nonlinear regression model with a sigmoidal dose response and variable slope within GraphPad Prism was used to calculate the IC50 value of Rb inhibition for individual test compounds.

[2] = tested on: BT-549 breast ductal carcinoma cells; test: Cancer cell proliferation assay, single agent (cell viability); format: cell-based; settings: Homo sapiens, Table 4, Rb negative, treatment 24 Hr, Cell Titer-Glo or resazurin
Summary of the method: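 Cells seeded day 1, then exposed on day 2 to 7–9 compound concentrations (e.g. 1.1 nM–10 μM); BT-549 for 24 h, MCF-7 and DU4475 for 144 h with medium change at 72 h. Viability by CellTiter-Glo or resazurin; IC50 from variable-slope sigmoidal fit.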

CDK9 (cyclin K) = biological target: T4, CDK9 (cyclin K) (Homo sapiens, UniProt P50750); test: LanthaScreen Eu Kinase Binding Assay
T4 construct: purchased Invitrogen Life Technologies (assay service)
T4 sequence (P50750 whole entry): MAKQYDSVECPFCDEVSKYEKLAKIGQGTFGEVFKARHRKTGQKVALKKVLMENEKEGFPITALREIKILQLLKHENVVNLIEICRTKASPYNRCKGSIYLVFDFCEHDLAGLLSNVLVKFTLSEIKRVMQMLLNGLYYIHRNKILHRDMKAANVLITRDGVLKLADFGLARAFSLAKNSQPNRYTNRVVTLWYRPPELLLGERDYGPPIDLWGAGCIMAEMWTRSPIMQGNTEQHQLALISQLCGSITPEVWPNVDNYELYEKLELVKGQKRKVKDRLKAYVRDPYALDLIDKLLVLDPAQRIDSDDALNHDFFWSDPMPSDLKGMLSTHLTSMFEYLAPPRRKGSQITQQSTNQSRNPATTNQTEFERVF
T4 sequence (O75909 whole entry partner): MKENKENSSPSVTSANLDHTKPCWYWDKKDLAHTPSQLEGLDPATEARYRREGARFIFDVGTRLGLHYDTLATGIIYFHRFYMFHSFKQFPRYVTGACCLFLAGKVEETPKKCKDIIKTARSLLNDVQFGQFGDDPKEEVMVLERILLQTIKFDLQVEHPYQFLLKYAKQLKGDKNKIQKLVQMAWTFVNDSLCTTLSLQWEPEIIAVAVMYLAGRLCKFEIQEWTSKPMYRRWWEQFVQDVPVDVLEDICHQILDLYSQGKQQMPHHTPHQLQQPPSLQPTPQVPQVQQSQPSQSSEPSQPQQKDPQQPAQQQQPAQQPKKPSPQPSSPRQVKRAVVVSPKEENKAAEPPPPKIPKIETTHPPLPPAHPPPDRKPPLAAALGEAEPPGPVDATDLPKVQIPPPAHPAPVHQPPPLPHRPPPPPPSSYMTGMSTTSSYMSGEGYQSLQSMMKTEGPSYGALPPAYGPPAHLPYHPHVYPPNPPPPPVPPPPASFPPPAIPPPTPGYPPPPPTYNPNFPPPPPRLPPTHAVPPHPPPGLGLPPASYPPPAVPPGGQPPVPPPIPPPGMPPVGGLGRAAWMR
Experimental: 0.16 μL of 100×test compound in 100% DMSO (at specific solutions) were mixed with 3.84 μL of Kinase Buffer (50 mM HEPES pH 7.5, 0.01% BRIJ-35, 10 mM MgCl2, 1 mM EGTA), 8.0 μL of 2× Kinase (5 nM)/Antibody (Eu-anti-His, 2 nM) Mixture and 4.0 μL of 4×Tracer (Tracer 236, 100 nM). The plates were shaken for 30 seconds, and incubated for 60 minutes at room temperature. The plates were read on fluorescence plate reader with Dual emission at 615 nm and 665 nm.
The following equations were used for LanthaScreen Eu Kinase Binding Assay Data Analysis. Percent inhibition (100-% activity) was fitted to the “four-parameter logistic model” in XLfit for determination of IC50 values.

T1 sequence (P11802 whole entry): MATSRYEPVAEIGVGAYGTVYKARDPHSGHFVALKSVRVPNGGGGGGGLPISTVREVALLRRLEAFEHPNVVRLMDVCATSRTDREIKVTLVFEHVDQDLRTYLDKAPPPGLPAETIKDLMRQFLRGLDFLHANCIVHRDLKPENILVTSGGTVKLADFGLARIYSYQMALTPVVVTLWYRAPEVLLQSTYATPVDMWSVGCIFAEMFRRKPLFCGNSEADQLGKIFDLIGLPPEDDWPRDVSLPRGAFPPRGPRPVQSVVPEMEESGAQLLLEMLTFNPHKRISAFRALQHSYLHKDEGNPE
T1 sequence (P24385 whole entry partner): as the sequence (P24385 whole entry partner) above

SMILES	IC50 (CDK4)	IC50 (CDK6)	IC50 (CDK1 (cyclin B); read-out: CDK1/B IC50)	IC50 (CDK1 (cyclin B))	IC50 ([1]; MCF7, 24H treatment, read-out: Inhibition of Rb phosphorylation IC50)	IC50 [2]	IC50 (CDK9 (cyclin K))	inhibition at 0.01 µM [1]	inhibition at 0.1 µM [1]	inhibition at 1 µM [1]
N#Cc1cc2cnc(Nc3ccc4c(c3)CCNC4)nc2n(C2CC3CC3C2)c1=O (stereo not drawn) [Compound No. 342, 8-(bicyclo[3.1.0]hexan-3-yl)-7-oxo-2-((1,2,3,4-tetrahydroisoquinolin-6-yl)amino)-7,8-dihydropyrido[2,3-d]pyrimidine-6-carbonitrile]	10 nM	22 nM	439 nM							
N#Cc1cc2cnc(Nc3ccc4c(c3)CNCC4)nc2n(C2CCCC2)c1=O [Compound No. 29, 8-cyclopentyl-7-oxo-2-((1,2,3,4-tetrahydroisoquinolin-7-yl)amino)-7,8-dihydropyrido[2,3-d]pyrimidine-6-carbonitrile]	7 nM	13 nM	441 nM					12%	27%	44%
N#Cc1cc2cnc(Nc3ccc4c(c3)CCNC4)nc2n(C2CCCC2)c1=O [Compound No. 31, 8-cyclopentyl-7-oxo-2-((1,2,3,4-tetrahydroisoquinolin-6-yl)amino)-7,8-dihydropyrido[2,3-d]pyrimidine-6-carbonitrile]	5 nM	9 nM	481 nM			1110 nM	20 nM	1%	27%	95%

Further lines, with some results ahead:

IC50 (CDK4)	IC50 (CDK6)	IC50 (CDK1 (cyclin B); read-out: CDK1/B IC50)	IC50 (CDK1 (cyclin B))	IC50 ([1]; MCF7, 24H treatment, read-out: Inhibition of Rb phosphorylation IC50)	IC50 [2]	IC50 (CDK9 (cyclin K))	SMILES	inhibition at 0.01 µM [1]	inhibition at 0.1 µM [1]	inhibition at 1 µM [1]
2.6 nM	4 nM		53 nM	< 123 nM			CS(=O)(=O)N1CCC(Nc2ncc3cc(C#N)c(=O)n(C4CCCC4)c3n2)CC1 [Compound No. 93, 8-cyclopentyl-2-((1-(methylsulfonyl)piperidin-4-yl)amino)-7-oxo-7,8-dihydropyrido[2,3-d]pyrimidine-6-carbonitrile]			
3.5 nM	1.5 nM				1400 nM		N#Cc1cc2cnc(Nc3ccc(N4CCNCC4)c(F)c3)nc2n(C2CCCC2)c1=O [Compound No. 13, 8-cyclopentyl-2-((3-fluoro-4-(piperazin-1-yl)phenyl)amino)-7-oxo-7,8-dihydropyrido[2,3-d]pyrimidine-6-carbonitrile]	35%	58%	93%
40 nM	55 nM		1110 nM				CS(=O)(=O)N1CCC(Nc2ncc3cc(C#N)c(=O)n(C4CCC(F)(F)C4)c3n2)CC1 (racemic) [Compound No. 345, 8-(3,3-difluorocyclopentyl)-2-((1-(methylsulfonyl)piperidin-4-yl)amino)-7-oxo-7,8-dihydropyrido[2,3-d]pyrimidine-6-carbonitrile]			
3.5 nM	8.5 nM	197 nM					CS(=O)(=O)N1CCC(Nc2ncc3cc(C#N)c(=O)n(C4CC5CC5C4)c3n2)CC1 (stereo not drawn) [Compound No. 341, 8-(bicyclo[3.1.0]hexan-3-yl)-2-((1-(methylsulfonyl)piperidin-4-yl)amino)-7-oxo-7,8-dihydropyrido[2,3-d]pyrimidine-6-carbonitrile]			
